Experimental data taken from patent US4220755A, “Fortimicin B derivatives and process for production thereof” (Abbott Laboratories, priority 1976, dated 1980).
Converted amounts (≈) assume the structure as drawn. Like-named read-outs stand apart in the source and are kept apart here.

Legend:
Escherichia coli NIHTC-2 = experiment: MIC, agar dilution method, pH 7.2; assay type: cell-based; details: NIHTC2; pH 7.2; Escherichia coli NIHTC-2; read-out: Minimum inhibition concentration (MIC)
Experimental: (§1) Measurement was carried out according to the agar dilution method, using a medium of pH 8.0, or the Japanese Antibiotic Medicament Standard, using a medium of pH 7.2 Units are in mcg/ml.

[1] = test system: Eschericihia coli GN2411-5; experiment: MIC, agar dilution method, pH 7.2; assay type: cell-based; details: Escherichia coli
Experimental: as §1

[2] = test system: Klebsiella pneumoniae KY4274; experiment: MIC, agar dilution method, pH 7.2; assay type: cell-based
Experimental: as §1

Proteus vulgaris JJ = experiment: MIC, agar dilution method, pH 7.2; assay type: cell-based
Experimental: as §1

[3] = test system: Pseudomonas aeruginosa BMH# 1; experiment: MIC, agar dilution method, pH 7.2; assay type: cell-based; details: pH 7.2; Pseudomonas aeruginosa BMH# 1; read-out: Minimum inhibition concentration (MIC)
Experimental: as §1

[4] = test system: Pseudomonas aeruginosa UCLA 4184; experiment: MIC, agar dilution method, pH 7.2; assay type: cell-based; details: UCLA4184; pH 7.2; Pseudomonas aeruginosa UCLA 4184; read-out: Minimum inhibition concentration (MIC)
Experimental: as §1

[5] = test system: Salmonella enteritidis G-14; experiment: MIC, agar dilution method, pH 7.2; assay type: cell-based; details: Salmonella enterica; pH 7.2; Salmonella enteritidis G-14; read-out: Minimum inhibition concentration (MIC)
Experimental: as §1

Shigella sonnei ATCC9290 = experiment: MIC, agar dilution method, pH 7.2; assay type: cell-based; details: read-out: Minimum inhibition concentration (MIC)
Experimental: as §1

[6] = test system: Staphylococcus aureus 209-P; experiment: MIC, agar dilution method, pH 7.2; assay type: cell-based; details: pH 7.2; Staphylococcus aureus 209-P; read-out: Minimum inhibition concentration (MIC)
Experimental: as §1

[7] = test system: Staphylococcus aureus Smith (A); experiment: MIC, agar dilution method, pH 7.2; assay type: cell-based; details: pH 7.2; Staphylococcus aureus Smith (A); read-out: Minimum inhibition concentration (MIC)
Experimental: as §1

[8] = test system: Staphylococcus a ureus 226; experiment: MIC, agar dilution method, pH 7.2; assay type: cell-based, Staphylococcus aureus; details: pH 7.2; Staphylococcus aureus 226; read-out: Minimum inhibition concentration (MIC)
Experimental: as §1

Eschericihia coli 3100 = experiment: MIC, agar dilution method, pH 7.2; assay type: cell-based, Escherichia coli
Experimental: as §1

[9] = test system: Escherichia coli 57R/W677; experiment: MIC, agar dilution method, pH 7.2; assay type: cell-based; details: 57R/W677, pH 7.2, read-out: Minimum inhibition concentration (MIC)
Experimental: as §1
(§2) **1: gentamicin, producing adenylsynthetase.

Escherichia coli 76-2 = experiment: MIC, agar dilution method, pH 7.2; assay type: cell-based; details: Escherichia coli, 762; pH 7.2; E. coli 76-2; 1**: gentamicin, producing adenylsynthetase; read-out: Minimum inhibition concentration (MIC)
Experimental: as §1, §2

[10] = test system: Escherichia coli R12 Z-338; experiment: MIC, agar dilution method, pH 7.2; assay type: cell-based; details: R12Z338, pH 7.2, read-out: Minimum inhibition concentration (MIC)
Experimental: as §1, §2

[11] = test system: Klebsiella pneumoniae 3020 Y-60; experiment: MIC, agar dilution method, pH 7.2; assay type: cell-based; details: 3020Y60; pH 7.2; Klebsiella pneumoniae 3020 Y-60; 1**: gentamicin, producing adenylsynthetase; read-out: Minimum inhibition concentration (MIC)
Experimental: as §1, §2

[12] = test system: Escherichia coli R18 KY8321; experiment: MIC, agar dilution method, pH 7.2; assay type: cell-based; details: R18KY8321, E. coli R18 KY8321, 2**: gentamicin, producing adenylsynthetase and neomycin phosphotransferase type II, read-out: Minimum inhibition concentration (MIC)
Experimental: as §1
2: gentamicin, producing adenylsynthetase and neomycin phosphotransferase

[13] = test system: Escherichia coli R17 Z343; experiment: MIC, agar dilution method, pH 7.2; assay type: cell-based; details: R17Z343, pH 7.2, E. coli R17 Z343, 3**: kanamycin, producing acetyltransferase, read-out: Minimum inhibition concentration (MIC)
Experimental: as §1
(§3) 3: kanamycin, producing acetyltransferase.

[14] = test system: Pseudomonas aeruginosa R9 KY8516; experiment: MIC, agar dilution method, pH 7.2; assay type: cell-based; details: R9KY8516, pH 7.2, P. aeruginosa R9 KY8516, 3**: kanamycin, producing acetyltransferase, read-out: Minimum inhibition concentration (MIC)
Experimental: as §1, §3

Serratia marcescens 1065 = experiment: MIC, agar dilution method, pH 7.2; assay type: cell-based; details: Serratia marcescens, 1065, pH 7.2, read-out: Minimum inhibition concentration (MIC)
Experimental: as §1, §3

[15] = test system: Escherichia coli R19 KY8348; experiment: MIC, agar dilution method, pH 7.2; assay type: cell-based; details: R19KY8348, pH 7.2, E. coli R19 KY8348, 4**: gentamicin, producing acetyltransferase type I, read-out: Minimum inhibition concentration (MIC)
Experimental: as §1
(§4) 4: gentamicin, producing acetyltransferase type I.

[16] = test system: Pseudomonas aeruginosa R4 KY8511; experiment: MIC, agar dilution method, pH 7.2; assay type: cell-based; details: R4KY8511, pH 7.2, P. aeruginosa R4 KY8511, 4**: gentamicin, producing acetyltransferase type I, read-out: Minimum inhibition concentration (MIC)
Experimental: as §1, §4

[17] = test system: Escherichia coli R20 KY8349; experiment: MIC, agar dilution method, pH 7.2; assay type: cell-based
Experimental: as §1
5: neomycin, producing phosphotransferase type I.

[18] = test system: Pseudomonas aeruginosa R5 KY8512; experiment: MIC, agar dilution method, pH 7.2; assay type: cell-based; details: R5KY8512, pH 7.2, P. aeruginosa R5 KY8512, 6**: neomycin, producing phosphotransferase type I and type II, read-out: Minimum inhibition concentration (MIC)
Experimental: as §1
6: neomycin, producing phosphotransferase type I and type II.

Providencia sp 164 = experiment: MIC, agar dilution method, pH 7.2; assay type: cell-based; details: pH 7.2; Providencia sp 164; 7**: gentamicin, producing acetyltransferase type II; read-out: Minimum inhibition concentration (MIC)
Experimental: as §1
7: gentamicin, producing acetyltransferase type II.

[19] = test system: Staphylococcus aureus KY4279 ATCC6538P; experiment: MIC, agar dilution method, pH 8.0; assay type: cell-based; details: pH 8.0, Staphylococcus aureus KY4279, read-out: Minimum inhibition concentration (MIC), SA
Experimental: as §1
S.A.: Staphylococcus aureus KY4279 ATCC6538P

Bacillus subtilis KY4273 = experiment: MIC, agar dilution method, pH 8.0; assay type: cell-based; details: pH 8.0; Bacillus subtilis KY4273; read-out: Minimum inhibition concentration (MIC), BS
Experimental: as §1
B.S.: Bacillus subtilis KY4273

[20] = test system: Eschericia coli KY4271 ATCC26; experiment: MIC, agar dilution method, pH 8.0; assay type: cell-based; details: Escherichia coli, ATCC26; pH 8.0; E. coli KY4271; read-out: Minimum inhibition concentration (MIC), EC
Experimental: as §1
E.C.: Eschericia coli KY4271 ATCC26

[21] = test system: Proteus vulgaris KY4277 ATCC6897; experiment: MIC, agar dilution method, pH 8.0; assay type: cell-based; details: ATCC6897; pH 8.0; Proteus vulgaris KY4277; read-out: Minimum inhibition concentration (MIC), PV
Experimental: as §1

[22] = test system: Shigella sonnei KY4281 ATCC9290; experiment: MIC, agar dilution method, pH 8.0; assay type: cell-based
Experimental: as §1

[23] = test system: Salmonella typhosa KY4278 ATCC9992; experiment: MIC, agar dilution method, pH 8.0; assay type: cell-based; details: Salmonella enterica, pH 8, read-out: Minimum inhibition concentration (MIC), ST
Experimental: as §1
S.T.: Salmonella typhosa KY4278 ATCC9992

[24] = test system: Klebsiella pneumoniae KY4275 ATCC10031; experiment: MIC, agar dilution method, pH 8.0; assay type: cell-based; details: ATCC10031; pH 8.0; Klebsiella pneumoniae KY4275; read-out: Minimum inhibition concentration (MIC), KP
Experimental: as §1
K.P.: Klebsiella pneumoniae KY4275 ATCC10031.

| Structure (SMILES) | MIC (Escherichia coli NIHTC-2) | MIC [3] | MIC [4] | MIC [5] | MIC (Shigella sonnei ATCC9290) | MIC [6] | MIC [7] | MIC [8] | MIC [9] | MIC (Escherichia coli 76-2) | MIC [10] | MIC [11] | MIC [12] | MIC [13] | MIC [14] | MIC (Serratia marcescens 1065) | MIC [15] | MIC [16] | MIC [18] | MIC (Providencia sp 164) | other results |
| --- | --- | --- | --- | --- | --- | --- | --- | --- | --- | --- | --- | --- | --- | --- | --- | --- | --- | --- | --- | --- | --- |
| CO[C@H]1[C@@H](O)[C@H](N)[C@@H](O[C@H]2O[C@H]([C@H](C)N)CC[C@H]2N)[C@H](O)[C@@H]1N(C)CCN [Compound 15, 4-N-(2-aminoethyl)fortimicin B] | 3.12 µg/mL (≈ 7.97 µM) | 12.5 µg/mL (≈ 31.9 µM) | 12.5 µg/mL (≈ 31.9 µM) | 25 µg/mL (≈ 63.9 µM) | 6.25 µg/mL (≈ 16 µM) | 0.78 µg/mL (≈ 1.99 µM) | 0.78 µg/mL (≈ 1.99 µM) | 0.4 µg/mL (≈ 1.02 µM) | 12.5 µg/mL (≈ 31.9 µM) | 3.12 µg/mL (≈ 7.97 µM) | 6.25 µg/mL (≈ 16 µM) | 50 µg/mL (≈ 128 µM) | 3.12 µg/mL (≈ 7.97 µM) | 0.78 µg/mL (≈ 1.99 µM) | 25 µg/mL (≈ 63.9 µM) | 6.25 µg/mL (≈ 16 µM) | > 100 µg/mL | > 100 µg/mL | 12.5 µg/mL (≈ 31.9 µM) | 12.5 µg/mL (≈ 31.9 µM) | MIC ([1]; pH 7.2, E. coli GN2411-5, read-out: Minimum inhibition concentration (MIC)): 3.12 µg/mL (≈ 7.97 µM); MIC ([2]; Klebsiella pneumoniae, KY4274, pH 7.2, read-out: Minimum inhibition concentration (MIC)): 6.25 µg/mL (≈ 16 µM); MIC (Proteus vulgaris JJ; Proteus vulgaris, pH 7.2, read-out: Minimum inhibition concentration (MIC)): 6.25 µg/mL (≈ 16 µM); MIC (Eschericihia coli 3100; Escherichia coli, 3100, pH 7.2, read-out: Minimum inhibition concentration (MIC)): 6.25 µg/mL (≈ 16 µM); MIC ([17]; R20KY8349, pH 7.2, E. coli R20 KY8349, 5**: neomycin, producing phosphotransferase type I, read-out: Minimum inhibition concentration (MIC)): 3.12 µg/mL (≈ 7.97 µM); MIC [19]: 0.16 µg/mL (≈ 0.409 µM); MIC (Bacillus subtilis KY4273): 0.16 µg/mL (≈ 0.409 µM); MIC [20]: 0.32 µg/mL (≈ 0.817 µM); MIC [21]: 0.64 µg/mL (≈ 1.63 µM); MIC ([22]; Shigella sonnei, ATCC9290, pH 8, read-out: Minimum inhibition concentration (MIC), SS): 1.25 µg/mL (≈ 3.19 µM); MIC [23]: 0.32 µg/mL (≈ 0.817 µM); MIC [24]: 0.63 µg/mL (≈ 1.61 µM) |
| CNCC[C@H](O)CN(C)[C@H]1[C@@H](O)[C@H](O[C@H]2O[C@H]([C@H](C)N)CC[C@H]2N)[C@@H](N)[C@H](O)[C@@H]1OC [Compound 28, 4-N-[(S)-4-methylamino-2-hydroxybutyl]fortimicin B] | 1.56 µg/mL (≈ 3.47 µM) | 12.5 µg/mL (≈ 27.8 µM) | 50 µg/mL (≈ 111 µM) | 3.12 µg/mL (≈ 6.94 µM) | 6.25 µg/mL (≈ 13.9 µM) | 0.78 µg/mL (≈ 1.73 µM) | 0.4 µg/mL (≈ 0.89 µM) | 0.4 µg/mL (≈ 0.89 µM) | 12.5 µg/mL (≈ 27.8 µM) | 3.12 µg/mL (≈ 6.94 µM) | 6.25 µg/mL (≈ 13.9 µM) | 12.5 µg/mL (≈ 27.8 µM) | 12.5 µg/mL (≈ 27.8 µM) | 3.12 µg/mL (≈ 6.94 µM) | 50 µg/mL (≈ 111 µM) | 6.25 µg/mL (≈ 13.9 µM) | > 100 µg/mL | > 100 µg/mL | 12.5 µg/mL (≈ 27.8 µM) | 25 µg/mL (≈ 55.6 µM) | MIC ([1]; GN2411, pH 7.2, read-out: Minimum inhibition concentration (MIC)): 6.25 µg/mL (≈ 13.9 µM); MIC ([2]; pH 7.2, Klebsiella pneumoniae KY4274, read-out: Minimum inhibition concentration (MIC)): 3.12 µg/mL (≈ 6.94 µM); MIC (Proteus vulgaris JJ; pH 7.2, Proteus vulgaris JJ, read-out: Minimum inhibition concentration (MIC)): 3.12 µg/mL (≈ 6.94 µM); MIC (Eschericihia coli 3100; Escherichia coli, pH 7.2, E. coli 3100, read-out: Minimum inhibition concentration (MIC)): 12.5 µg/mL (≈ 27.8 µM); MIC ([17]; R20KY8349, pH 7.2, read-out: Minimum inhibition concentration (MIC)): 1.25 µg/mL (≈ 2.78 µM); MIC [19]: 0.04 µg/mL (≈ 0.089 µM); MIC (Bacillus subtilis KY4273): 0.04 µg/mL (≈ 0.089 µM); MIC [20]: 0.08 µg/mL (≈ 0.178 µM); MIC [21]: 0.32 µg/mL (≈ 0.712 µM); MIC ([22]; ATCC9290, pH 8.0, Shigella sonnei KY4281, read-out: Minimum inhibition concentration (MIC), SS): 0.63 µg/mL (≈ 1.4 µM); MIC [23]: 0.08 µg/mL (≈ 0.178 µM); MIC [24]: 0.32 µg/mL (≈ 0.712 µM) |
